The source of these data is patent US10533032B2, “Crystalline form of benzylbenzene SGLT2 inhibitor” (THERACOS SUB, LLC, priority 2010, dated 2020).

“And” between values parts separate entries of the source, which are not always exact repeats. Identical values can stand only once.

Series [1] in a line: Hygroscopicity test of crystalline compound 8 powder in desiccators over saturated salt solutions (weight increase, appearance). It is filed as physicochemical. As to conditions: for Weight Increase, Average: average of 3 samples; for Weight Increase: individual samples 1-3, listed as crystal compound 8.
The format of series [2] is physicochemical. From the text: The crystalline compound of the present invention is also characterized by the unit cell data substantially in accordance with FIG. 7. Thermal gravimetric analysis (TGA) can also be used to characterize the crystalline compound of the present invention.
Series [3] is described as follows: Hygroscopicity test of crystalline compound 8 powder in desiccators over saturated salt solutions (weight increase, appearance). It is filed as physicochemical. Conditions: for Weight Increase: individual samples 1-3, listed as crystal compound 8. How it is done: The tendency toward hygroscopicity of crystalline compound 8 in powder form was tested at 75% and 92.5% relative humidity at 25° C. for up to 10 days. Reagents included: (1) water: in house, MilliQ, 18.2MΩ; (2) NaCl: AR grade; (3) KNO3: AR grade; (4) saturated NaC solution with extra NaCl solid for 25 OC/75% RH control; and (5) saturated KNO3 solution with extra KNO3 solid for 25 OC/92.5% RH control. Equipment used included (1) desiccators, 240 mm ID; and (2) weighing bottles with lids: 50 mm ID×30 mm height. The saturated salt solutions and solids were transferred into individual desiccators, and equilibrated at 25° C. at least overnight to reach the desired relative humidity readings. Four weighing bottles were placed into each desiccator, and equilibrated overnight. The empty weighing bottles were weighed and the tare weights recorded (W1). 0.5 g of crystalline compound 8 was added into three weighing bottles in each desiccator to form a thin layer with thickness of 1-2 mm. The sample weight in each bottle (W2) was recorded. One empty weighing bottle was used for blank calibration. The bottles were left in each desiccator with lids open. The lids were closed and each bottle accurately weighed on days 1, 5 and 10 (W3). The bottles were returned to each desiccator with lids open immediately after weighing. The following formula was used to calculate the weight increase: [formula] WB=the weight increase of empty weighing bottle.

As for `OC[C@H]1O[C@@H](c2ccc(Cl)c(Cc3ccc(OCCOC4CC4)cc3)c2)[C@H](O)[C@@H](O)[C@@H]1O` [crystalline compound 8, (2S,3R,4R,5S,6R)-2-(4-chloro-3-(4-(2-cyclopropoxyethoxy)benzyl)phenyl)-6-(hydroxymethyl)tetrahydro-2H-pyran-3,4,5-triol], the “Weight Increase, Average” value in series [1] (25° C./75% RH, 5 days) is recorded as 0.1541%; in series [1] (25° C./75% RH, 10 days), 0.2593%; in series [1] (25° C./92.5% RH, 1 day), 0.119%; in series [1] (25° C./92.5% RH, 5 days) it was 0.1627%; in series [1] (25° C./92.5% RH, 10 days) it was 0.2295%; in series [3] (25° C./75% RH, 1 day, average of 3 samples), 0.2447%. Besides, the Appearance entry is “White powder” in series [1] (25° C./75% RH, after 1 day); “White powder” in series [1] (25° C./92.5% RH, after 1 day); “White powder” in series [1] (25° C./92.5% RH, after 5 days); “White powder” in series [1] (25° C./92.5% RH, after 10 days); “White powder” in series [3] (25° C./75% RH, after 5 days); “White powder” in series [3] (25° C./75% RH, after 10 days). Also, the “Weight Increase” value in series [1] (25° C./92.5% RH, 1 day) was 0.05362% and 0.1036% and 0.1998%; in series [1] (25° C./92.5% RH, 5 days), 0.0417% and 0.2071% and 0.2394%; in series [1] (25° C./92.5% RH, 10 days) it was 0.2601% and 0.1633% and 0.2651%; in series [3] (25° C./75% RH, 1 day) it was 0.3291% and 0.235% and 0.1698%; in series [3] (25° C./75% RH, 5 days) it was 0.1051% and 0.1995% and 0.1578%; in series [3] (25° C./75% RH, 10 days), 0.3509% and 0.2311% and 0.1957%. The “thermal stability (TGA)” value in series [2] was “above 200 °C”. For the same molecule, the hygroscopicity entry in series [3] (powder form, at the study conditions (75% and 92.5% RH, 25° C., up to 10 days)) is on record as “low hygroscopicity”. For the same molecule, the weight increases result in series [3] (powder samples at 75% and 92.5% relative humidity at 25° C. for 10 days) is on record as “below 0.26%”.
